Experimental data reported in patent US6723716B1, “7-acylamino-3-heteroarylthio-3-cephem carboxylic acid antibiotics and prodrugs thereof” (Essential Therapeutics, Inc., priority 1999, dated 2004).
Like-named read-outs stand apart in the source and are kept apart here.

Legend:
[1] = In vitro stability of compounds in rat serum; format: in vitro ADME; settings: after 60 min exposure to rat serum, 37° C., HPLC
Summary of the method: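 Compound (25 μL of 2 mg/mL or 0.2 mg/mL aqueous stock per 1000 μL) was incubated in heparinized rat serum at 37° C. Samples at 0, 15, 30 and 60 min were quenched with 4% trichloroacetic acid and analysed by C18 HPLC with UV at 254/280 nm. Loss is calculated from peak area relative to time 0.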

[2] = tested on: human serum proteins; assay: Serum binding determination by ultrafiltration/HPLC; format: in vitro ADME; settings: by HPLC
[3] = Pharmacokinetic evaluation in rat (clearance); format: in vivo; settings: male, Sprague-Dawley (SD), serum, iv, read-out: Pharmacokinetics Clearance (converted)
Source text: Four male SD rats with femoral and jugular vein catheters were obtained from Hilltop Lab Animals, Inc. (Scottdale, Pa.). The catheters in the femoral and jugular veins were filled with 10 units/mL heparin in saline, and kept patent by changing the solution daily. The animals were quarantined for a minimum of two days prior to use, and were maintained on a 12-h light:dark schedule with constant access to food and water before and during the study. On the day of dosing, the animals weighed […] (mean±s.d.).
A 4 mg/mL (active component) dosing solution of mesylate salt of compound 17 was prepared in sterile saline for injection. […] Blood samples (0.2 mL aliquots) were collected from the jugular vein catheter 5, 15, 20, 25, 30, and 45 min, and 1, 2, 3, and 4 h after the start of the infusion. The blood was centrifuged for 10 min and the serum was stored ≦−70° C. until analysis by HPLC.
The plasma concentrations from individual animals were fit to a two-compartment model with zero order input and first-order elimination from the central compartment using weighted nonlinear regression (WinNonlin, Pharsight, Palo Alto, Calif.). Pharmacokinetic parameters were calculated from the fitted parameters using standard equations (Gibaldi M, Perrier D. 1982. Pharmacokinetics, 2nd ed., Marcel Dekker Inc., New York.).

Row | SMILES | Stability in rat serum (% loss) [1] [%] | Serum Binding human (% of compound bound to serum) [2] [%] | clearance ([3]; dose 20.0 mg/kg) [mL/min/kg] | clearance ([3]; dose 42.5 mg/kg) [mL/min/kg]
1 | NCCSCc1cnccc1SC1=C(C(=O)O)N2C(=O)[C@@H](NC(=O)/C(=N\O)c3cccc(N)n3)[C@H]2SC1 [Cmpd 24, (7R)-7-[(Z)-2-(2-aminopyrid-6-yl)-2-(hydroxyimino)acetamido]-3-[3-(2-aminoethylthiomethyl)pyrid-4-ylthio]-3-cephem-4-carboxylic acid] | 66 | 88 | 47.5 | –
2 | NCCSCc1cnccc1SC1=C(C(=O)O)N2C(=O)C(NC(=O)/C(=N\O)c3csc(N)n3)C2SC1 (stereo not drawn) [Cmpd 19] | 26 | 68 | – | 20.8
